Test results as given in article PMC8152350, “High cytotoxicity of betulin towards fish and murine fibroblasts: Is betulin safe for nonneoplastic cells?” (BMC Veterinary Research, 2021).
In brackets after ≈: the same amount, converted by molar mass. Like-named read-outs stand apart in the source and are kept apart here.

Columns and labels:
U937 = system: U937; design: method as in PMID 12697374; settings: U937 leukaemia; read-out: IC50 of betulin; cited from earlier work
CCRF/CEM (leukaemia) = system: CCRF/CEM (leukaemia); design: method as in PMID 23595090; settings: MTT assay; cited from earlier work
A-549 = system: A-549; design: method as in PMID 16787747; settings: read-out: IC50 of betulin; cited from earlier work
NIH/3T3 cells [1] = experiment: MTT assay (mitochondrial activity), murine fibroblasts
Protocol: (§1) NIH/3T3 (ATCC CRL-1658) mouse embryonic fibroblasts were grown in Dulbecco’s modified Eagle’s medium (DMEM) supplemented with 2 mM glutamine, 10 % foetal bovine serum and a 1 % antibiotic-antimycotic solution at 37 °C in a humidified atmosphere with 5 % CO2.
(§2) NIH/3T3 and BF-2 cells were seeded in 96-well plates at a density of 1 × 10^4 or 2 × 10^4 cells per well, respectively. After 24 h of incubation at an appropriate temperature, cells were exposed to betulin at the concentrations mentioned above for 24, 48 and 72 h. Control (untreated) cells served as the negative control and a reference point. Triton X-100 treated cells served as the positive internal control in MTT, NRU and LDH assays. Due to the specific character of SRB assay, there was no positive control in this test. After 24, 48 and 72 h of treatment, the four different cytotoxicity assays were performed. All experiments were repeated three times.
(§3) The MTT assay is used to estimate mitochondrial damage, since it determines the activity of mitochondrial enzymes. These enzymes reduce the water-soluble tetrazolium dye MTT to insoluble purple formazan, which accumulates inside viable cells.
(§4) The MTT assay was conducted using the protocol described by Mosmann, with some modifications described in our previous article.
(§5) The MTT assay was used to determine the cytotoxicity of both betulin and the vehicle (DMSO).
(§6) All experiments were repeated three times. […] Statistical analyses were performed using GraphPad Prism software (GraphPad Software, USA). Data were subjected to one-way analysis of variance (ANOVA). Dunnett’s posttest was used to determine differences between control and betulin-exposed cells at the same time points. Differences between the two cell lines at the same time points were determined using Student’s t-test. The 50 % cytotoxic concentrations (CC50, defined as the concentration of the compound that reduced cell viability by 50 %) were calculated using the Quest Graph™ ED50 Calculator (AAT Bioquest, Inc.).

[2] = as above; settings: mouse
Protocol: as §1, §2, §3, §4, §5, §6

A375 (melanoma) = system: A375 (melanoma); design: method as in PMID 22627971, PMID 23379693; settings: A375, 20 µM; cited from earlier work
GOTO = system: GOTO; design: method as in PMID 12697374; settings: GOTO neuroblastoma; read-out: IC50 of betulin; cited from earlier work
NIH/3T3 cells [3] = experiment: NRU assay (lysosomal membrane integrity), murine fibroblasts; format: cell-based, mouse; settings: NIH/3T3, beginning at 48 h
Protocol: (§7) All experiments were repeated three times.
(§8) The NRU assay evaluates lysosomal membrane integrity. It measures neutral red dye accumulation within lysosomes of viable cells.
(§9) The NRU assay was performed using a commercially available kit (TOX4) (Sigma-Aldrich, Poland) according to the manufacturer’s protocol. The full description of the test procedure was also provided in a published article.

[4] = as above; format: cell-based, mouse; settings: mouse, NIH/3T3 embryonic fibroblasts, n = 3
Protocol: as §7, §8, §9

T47D (breast cancer) = system: T47D (breast cancer); design: method as in PMID 23595090; settings: SRB assay; cited from earlier work
Bcap-37 (breast cancer) = system: Bcap-37 (breast cancer); design: method as in PMID 22627971, PMID 23379693; settings: Bcap-37, 20 µM; cited from earlier work
NIH/3T3 cells [5] = experiment: in vitro; format: cell-based, mouse; settings: NIH/3T3, 72 h
Protocol: as §7
(§10) The sulforhodamine B colorimetric assay measures the cellular protein content, and the assay results are proportional to the number of cells.
(§11) The SRB assay was performed using a commercially available kit (TOX6) (Sigma-Aldrich, Poland) according to the manufacturer’s protocol. In this assay, SRB binds to protein components of trichloroacetic acid-fixed cells, and the protein-bound dye is extracted with Tris. The results obtained are presented as the percentage of the total cellular protein content in control (nontreated) cells.

in vitro = format: cell-based, mouse; settings: mouse
Protocol: as §7, §10, §11

[6] = Solubility of betulin in DMSO; format: physicochemical; settings: organic solvent or mixture, thermodynamic from solid, room temperature, read-out: maximum solubility of betulin in DMSO
Protocol: We were able to dissolve 5000 µg of betulin in 1 mL of DMSO, although it required heating, and the solution remained unstable. After mixing with the cell culture medium, the solution immediately became slightly turbid.
A stock solution of betulin was prepared in DMSO at a concentration of 2500 µg/mL, and working solutions were prepared in cell maintenance media (serum-free) at final concentrations of 0 (control cells), 0.244, 0.488, 0.976, 1.95, 3.9, 7.8, 15.625 and 31.25 µg/mL immediately before use in cell culture.

[7] = system: B16 cells (B164A5 and B16F10); design: method as in PMID 25756279; settings: 150 µM betulin; cited from earlier work
[8] = system: human skin fibroblasts (HSF); settings: 24-h exposure, cited from earlier work
G361 = system: G361; design: method as in PMID 12697374; settings: G361 melanoma; read-out: IC50 of betulin; cited from earlier work
NB-1 = system: NB-1; design: method as in PMID 12697374; settings: NB-1 neuroblastoma; read-out: IC50 of betulin; cited from earlier work

## C=C(C)[C@@H]1CC[C@]2(CO)CC[C@]3(C)[C@H](CC[C@@H]4[C@@]5(C)CC[C@H](O)C(C)(C)[C@@H]5CC[C@]43C)[C@@H]12 [betulin, Betulin]
U937
  IC50: 14.4 µM
CCRF/CEM (leukaemia)
  IC50 of betulin: 10.9 µg/mL
A-549
  IC50: 3.8 µM
NIH/3T3 cells [1]; NIH/3T3, betulin 7.8 µg/mL, 72 h
  decrease in cell viability in the MTT assay: approximately 80%
NIH/3T3 cells [1]; mouse cells, 24 h, threshold persisted until termination of the experiment
  betulin concentration causing statistically significant decrease in viability (MTT): ≥ 1.95 µg/mL
[2]
  CC50 at 24 h: 1.532 ± 0.005 µg/mL (≈ 3.46 µM)
  CC50 at 48 h: 1.58 ± 0.64 µg/mL (≈ 3.58 µM)
  CC50 at 72 h: 1.85 ± 0.647 µg/mL (≈ 4.19 µM)
A375 (melanoma)
  inhibitory activity of betulin: 33.9%
GOTO
  IC50: 17.1 µM
NIH/3T3 cells [3]
  betulin concentration causing considerable decrease in viability (NRU): ≥ 3.9 µg/mL
[4]; NIH/3T3, 24 h, read-out: CC50 betulin NRU 24 h
  CC50 at 24 h: > 15.6 µg/mL
[4]; NIH/3T3, 48 h, mean ± SD, read-out: CC50 betulin NRU 48 h
  CC50 at 48 h: 7.33 ± 2.94 µg/mL (≈ 16.6 µM)
[4]; NIH/3T3, 72 h, mean ± SD, read-out: CC50 betulin NRU 72 h
  CC50 at 72 h: 13 ± 2.94 µg/mL (≈ 29.3 µM)
T47D (breast cancer)
  IC50 of betulin: 32.4 µg/mL
Bcap-37 (breast cancer)
  inhibitory activity of betulin: 53.2%
NIH/3T3 cells [5]
  betulin concentration causing considerable decrease in total cellular protein content (SRB): ≥ 1.95 µg/mL
In vitro; NIH/3T3, 24 h, mean ± SD, n = 3, read-out: CC50 betulin SRB 24 h
  CC50: 10.9 ± 7.34 µg/mL (≈ 24.6 µM)
In vitro; NIH/3T3, 48 h, mean ± SD, n = 3, read-out: CC50 betulin SRB 48 h
  CC50: 4.05 ± 1.24 µg/mL (≈ 9.15 µM)
In vitro; NIH/3T3, 72 h, mean ± SD, n = 3, read-out: CC50 betulin SRB 72 h
  CC50: 3.76 ± 0.572 µg/mL (≈ 8.48 µM)
In vitro; NIH/3T3, depending on incubation time (24-72 h), read-out: CC50 of betulin in SRB assay, range over incubation times
  CC50: 3.76 to 10.9 µg/mL (≈ 8.48 to 24.6 µM)
[6]
  solubility: 2500 µg/mL (≈ 5650 µM)
[7]
  trypan blue exclusion capacity: 60%
[8]; conversion of µM value
  betulin concentrations causing considerable LDH leakage, converted: ≥ 4.4 µg/mL
  betulin concentrations not toxic, converted: ≤ 2.2 µg/mL
[8]
  betulin concentrations causing considerable LDH leakage: ≥ 10 µM
  betulin concentrations not toxic: up to 5 µM
G361
  IC50: 12.4 µM
NB-1
  IC50: 16.5 µM
